What was measured:
[1] = Stability of sucrose-TM complex vs pure TM in open air (OD467); assay type: physicochemical; conditions: after 3 months of storage in an open dish
Description: An example of such a stabilized thiomolybdate compound is tetrathiomolybdate stabilized by sucrose. To prepare the sucrose-ammonium tetrathiomolybdate complex, 25 grams of sucrose is dissolved in 20 ml of distilled water. 1 gram of ammonium tetrathiomolybdate (TM) is added and the mixture stirred under argon until the TM is solution. The water is then removed from the mixture by flash evaporation under high vacuum.
After 3 months of storage in an open dish, the sucrose powder retained 61% of the original drug as measured by the OD467, while the TM stored under the same conditions retained only 5% of its original OD467.

Cp level = assay: TM loading dosing schedule and Cp reduction; assay type: in vivo, human; conditions: 20 mg tid with meals and a single dose of 60 mg between meals, vs 20 mg tid with meals and 20 mg tid between meals
Description: Therefore, this dosing schedule will be studied in a Phase II study. Three other loading doses of TM will also be studied: Level 1: 20 mg tid between meals and 20 mg tid with meals until Cp<20% (10 patients); Level 2: 25 mg tid between meals and 25 mg tid with meals until Cp<20% (10 patients); and Level 3: 30 mg tid between meals and 30 mg tid with meals until Cp<20% (10 patients).

[2] = Storage stability of TM (bulk under argon, capsules); assay type: physicochemical; conditions: room temperature
From the text: The bulk drug is therefore stored under argon.
TM was purchased in bulk lots suitable for human administration (Aldrich Chemical Company, Milwaukee, Wis.). […] At the time a prescription was written, the appropriate dose of TM was placed in gelatin capsules. Previously, it was shown by the inventors that TM dispensed in such capsules retained at least 90% of its potency for eight weeks (Brewer et al., 1991a). Thus, TM was dispensed to each patient in eight-week installments throughout the trial.

copper toxicity = conditions: late stages of liver disease; cited from earlier work
[3] = system: SUM149 breast cancer cells; assay: Nude mice with orthotopically injected SUM149 cells; assay type: in vivo
From the text: In this study, the ability of tetrathiomolybdate (TM) to abrogate or retard the growth of tumors in the mammary pads of nude mice after orthotropic injection of human breast cancer cells was studied. The highly angiogenic inflammatory breast cancer cell line called SUM149 was selected for this study. Given its high propensity to form palpable tumors within 2 weeks of injection into the mammary of 80-100% of the nude mice injected, this cell line posed a stringent test of the ability of TM to impair tumor progression.
Three groups of 5 nude mice each were set up in separate cages. Groups 2 and 3 received TM in the drinking water to average an intake of 1.2 mg/day/mouse, starting at day −7. Groups 1, 2, and 3 were injected on day 0 with 10^6 SUM149 breast cancer cells in the second thoracic mammary fat pad. On day 34, as no palpable tumors were noticeable in any of the mice in the treatment groups, TM was skipped on groups 2 and 3, and then TM was restarted on group 2 at a dose of 0.6 mg/day/mouse, while TM was resumed at full dose (1.2 mg/mouse/day) in group 3.
The developing tumors were measured approximately twice weekly, and the average of the product of the bi-dimensional perpendicular diameters for each group versus time is plotted in FIG. 3. The tumors in the control group grew relatively rapidly and all animals developed tumors. […] This dose decreases copper to approximately 10-20% of baseline levels. It is this degree of copper deficiency, well tolerated in both mice and humans, which appears to be required to inhibit tumor angiogenesis.

[4] = system: MML cells (prostate cancer) and breast cancer cells; assay: Cytotoxicity assay of MML cells and breast cancer cells; assay type: cell-based
From the text: Normal and neoplastic cells in culture derive their nutrients from transport and utilization of molecules from the media to the interior of the cell. This process is not dependent on blood vessel growth, and therefore TM should have no effect on cell growth rates and cell viability over a wide range of concentration, until a level of TM which is toxic to most cells is reached. One mechanism of toxicity is the depletion of free copper levels below those required for basic cell function. For concentrations of TM beyond this toxic level, both normal and neoplastic cells will be unable to survive, due to cellular toxicity of TM.
This was confirmed in a cytotoxicity assay of MML cells (prostate cancer) and breast cancer cells. […] The fraction of viable cells decreased precipitously from 100% to 15% when the concentration of TM increased from 1 μg/ml to 10 μg/ml. TM is therefore not contemplated for use a direct cytotoxic agent, as it is clear that, at the very high doses required for a cytotoxic effect, both tumor and normal cell death would occur. The serum TM concentrations needed to achieve an effective decoppering level are 100-500-fold lower than the threshold lethal level for cells.

## tetrathiomolybdate [TM]
[1]
  retained % of the original drug as measured by the OD467: 5%
Cp level
  speed of Cp reduction: reduces the Cp level to <20% more rapidly
[2]
  stability in capsules: stable in capsules for several months at room temperature
Copper toxicity
  efficacy against copper toxicity: very effective in treating these animals in the late stages of their liver disease
[3]; 1.2 mg/day/mouse in drinking water from day −7
  palpable tumors: no tumors were palpable until TM was skipped on day 34
[3]; TM restarted at ½ dose (0.6 mg/day/mouse)
  tumor growth after TM skipped on day 34: the tumors grew more rapidly
[3]; TM resumed at full dose 1.2 mg/day/mouse
  tumor growth after TM skipped on day 34: only very small tumors have grown
[3]; full dose 1.2 mg/day/mouse
  copper level: 10-20 % of baseline levels
[3]; ½ dose of TM (0.6 mg/day/mouse)
  decrease of copper levels: 50%
[4]
  serum TM concentrations for effective decoppering relative to threshold lethal level for cells: 100-500 fold lower

From patent publication US7438931B2, “Methods and compositions for the treatment of angiogenic diseases” (The Regents of The University of Michigan, priority 1998, dated 2008)
